# Measured values: patent US20130236568A1, “PHOSPHAPLATINS HAVING ANTI-ANGIOGENIC, ANTI-METASTATIC, AND PRO-APOPTOTIC PROPERTIES AND USES THEREOF” (Ohio University, priority 2011, published 2013)
# How the values were obtained:
# A2780/C30 cells = assay: Cell death detection assay with ELISA, A2780/C30 cells; type: cell-based, human
# Protocol: In these experiments, ovarian cancer cells were treated with pyrodach-4 in the presence and absence of inhibitors PFT-α (an inhibitor p53) and LY29400 (an inhibitor of PI3K).
# The different treatment groups from left to right are: control, 7 μM cisplatin, Con+PFT-α, 180 μM D4, 180 μM D4+PFT-α, 180 μM D4+LY294002. Apoptosis was quantified using the Cell Death Detection ELISA from Roche.
# A2780 and A2780/C30 cells were grown in monolayers, trypsinized and suspended in supplemented RPMI 1640 media as described in Example 5. All the treatments on the Fc/A2780 and Fc/A2780/C30 cell samples were carried out in triplicate. The ELISA was performed according to the manufacturer's instructions. Briefly, 50,000 cells were plated for each treatment and the cells were allowed to adhere for 4-6 hours. Cells were then either incubated with media alone (untreated sample) or with pyrodach-4 or cisplatin in the concentrations indicated above. DNA of the treated and untreated cells was assayed for nucleosomal DNA using the ELISA kit (purchased from Roche Diagnostics, Mannheim, Germany). The cells were lysed for 30 minutes using the lysis buffer. After centrifuging, 10% (v/v) supernanant was incubated with anti-histone-biotin and anti-DNA-peroxidase. After two hour incubation, the pellets were washed three times and incubated with the substrate solution. The absorbances were measured at 405 and 490 nm for each treatment type using SPECTRA Max M2 multichannel fluorescence plate reader (Molecular Devices, Sunnyvale, Calif.). The absorbances of the treated samples were normalized to the substrate solution.
# Fas = assay: Expression of key genes with and without p53 inhibitor (Table 3): Fas; type: cell-based, human; settings: positive = manifold increase, negative = decrease vs untreated cells
# Protocol: (§1) Quantitative real-time PCR experiments were performed to estimate the expression of a selection of targeted genes. HUVEC cells (Lonza Walkersville, Frederick, Md.) were cultured on 0.1% gelatin-coated petri dishes by following standard protocols recommended by the vendor in a humidified incubator by maintaining 5% CO2 at 37° C. Human epithelial ovarian cancer cells (A2780) and cisplatin-resistant cells (A2780/C30) were cultured in RPMI 1640 with or without cisplatin (7 μM) and pyrodach-4 (180 μM) for 0, 3, 12 and 24 hours. […] HUVECs were treated with or without cisplatin (7 μM) or pyrodach-4 (90 or 180 μM) for various durations ranging from 1 hr. to 6 hrs.
# (§2) Both treated and untreated cancer cells were maintained in RPMI 1640 medium with 10% fetal bovine serum, 2 μmol L-glutamine, 100 units/mL penicillin-streptomycin and 0.25 units/mL insulin solution, at 37° C. with 5% CO2. RNA was isolated from both the treated and untreated cells. […] The quantity and purity of RNA were determined by UV spectroscopy (NanoDrop 2000 Thermo Scientific, Wilmington, Del.). A minimum absorbance ratio index (ratio of the absorbance measured at 260 nm over that at 280 nm) of 1.9 was used as an acceptable purity. […] The target gene was labeled with a blue dye (FAM, absorbance: 494 nm, emission: 518 nm) while the reference gene was tagged with a green dye (VIC, absorbance: 538 nm, emission: 554 nm). […]
# VEGFR2 gene = assay: Quantitative real-time PCR, VEGFR2 gene expression in HUVEC cells; type: cell-based, human
# Protocol: Evaluations of selected gene expressions in Human Umbilical Vein Endothelial Cells (HUVEC) and Human Ovarian Cancer Cells by quantitative reverse transcriptase polymerase chain reaction (PCR)
# Quantitative real-time PCR experiments were performed to estimate the expression of a selection of targeted genes. HUVEC cells (Lonza Walkersville, Frederick, Md.) were cultured on 0.1% gelatin-coated petri dishes by following standard protocols recommended by the vendor in a humidified incubator by maintaining 5% CO2 at 37° C. […]
# as §2, with “CO2.” for “CO2. RNA was isolated from both the treated and untreated cells.”
# The threshold cycle number (Ct), the point at which the fluorescence of the qPCR reaction just exceeds the threshold fluorescence of the detection system, was determined. […]
# [1] = system: yeast deletion collection; assay: Genome-wide fitness assay in yeast (pooled deletion strains); type: cell-based
# Excerpt: The around 6000 strains in the yeast deletion collection can be studied in a single culture by using a microarray to detect the 20 bp DNA “barcodes” or “tags” contained in each strain. Barcode intensities are compared across time-points or across conditions to analyze the relative fitness of each strain. This development of the pooled fitness assay has greatly facilitated the functional annotation of the yeast genome by making genome-wide gene-deletion studies faster and easier, and has led to the development of high throughput methods for studying drug action in yeast. Pooled screens can be used for identifying gene functions, measuring the functional relatedness of gene pairs in order to group genes into pathways, identifying drug targets, and determining a drug's mechanism of action. This process involves five main steps: preparing aliquots of pooled cells, pooled growth, isolation of genomic DNA and PCR amplification of the barcodes, array hybridization (or next generation sequencing), and data analysis.
# The pooled fitness assay involves five main steps (FIG. 3). First, the deletion collection is grown on solid media in arrayed format and the resulting cells are pooled and frozen to make cell aliquots that will be used for starting growth experiments. Cells are then grown in the desired conditions, typically for 5 to 20 generations. The barcodes from the resulting cell samples are prepared for hybridization by isolation of the genomic DNA and PCR amplification of the barcodes. The barcodes are amplified in two reactions to prevent crosstalk between the uptag and downtag primers. The resulting PCR products are then hybridized to tag arrays with one array needed per cell sample. Data is then analyzed to determine differences in strain representation between pairs of samples.
# To analyze the genome wide effects of pyrodach-2 and -4, we screened 2 collections of strains, 1200 essential genes as heterozygote deletion mutants (reducing functional gene dose from 2 to 1) and 4800 non-essential genes as complete deletions (reducing functional gene dose from 2 to 0). Both compounds were screened at the highest dose possible (200 μM final concentration) to increase the likelihood of finding compound-specific sensitive strains.
# Fitness profiling of pooled deletion strains involves […] main steps: • 1. Strains are first pooled at approximately equal abundance. • 2. The pool is grown competitively in the condition of choice and a control condition. If a gene is sensitive to the treatment condition, the strain carrying this deletion will grow more slowly and become under-represented relative to the control culture (purple strain). Resistant strains will grow faster and become over-represented (not shown). • 3. Genomic DNA is isolated from cells harvested at the end of pooled growth, and barcodes are amplified from the genomic DNA with universal primers. • 4. PCR products are then hybridized to an array that detects the tag sequences, giving tag intensities for the two samples. • 5. The treatment and control sample are then compared to determine the relative fitness of each strain. Note that only the purple strain is described as sensitive to the condition. While the red strain grows more slowly than the blue strain in the treatment, this growth difference in not of interest because it matches that seen in the control.
# PUMA = assay: Expression of key genes with and without p53 inhibitor (Table 3): PUMA; type: cell-based, human; settings: positive = manifold increase, negative = decrease vs untreated cells
# Protocol: as §1, §2
substance,measurement,setting,value
"trans-(±)-1,2-cyclohexanediamine-trans-dihydroxo(pyrophosphato) platinum(IV) [Pyrodach-4]",Apoptotic cell death (ELISA absorbance),A2780/C30 cells; 7 μM cisplatin or 180 μM D4,unambiguously showed cell death
same,Effect of p53 and PI3K inhibitors on apoptotic cell death (ELISA absorbance),A2780/C30 cells; 180 μM D4 with PFT-α 15 μM or LY294002 30 μM,no effects
same,Expression of Fas,Fas; Pyrodach-4 + PFT-α,5.5
same,Expression of Fas,Fas; Pyrodach-4 treatment only,11.0
same,Suppression of VEGFR-2 expression,VEGFR2 gene,≤ 50%
same,Normalized expression of VEGFR2 gene,"VEGFR2 gene; positive = manifold increase, negative = relative decrease vs untreated cells, pyrodach-4 90 or 180 μM, 1 to 6 hrs",−2.0
same,Tolerability by the yeast cell (few sensitive strains),"[1]; highest dose possible, 200 μM final concentration",well tolerated by the cell
same,Functions enriched among sensitive strains,"[1]; yeast deletion strains, 200 μM final concentration",1) iron and copper transport and 2) metal-regulated transcription factors
same,"Sensitivity of DNA damage/repair genes (NER, HRR, PRR)","[1]; yeast deletion strains, phosphaplatins at 200 μM final concentration",not a single gene involved in DNA repair or other DNA metabolic processes showed any sensitivity as a mutant
same,Expression of PUMA,PUMA; Pyrodach-4 + PFT-α,4.4
same,Expression of PUMA,PUMA; Pyrodach-4 treatment only,16.6
